# Test results taken from ChEMBL document CHEMBL2384934, “Discovery of 3-phenyl-1H-5-pyrazolylamine derivatives containing a urea pharmacophore as potent and efficacious inhibitors of FMS-like tyrosine kinase-3 (FLT3)” (Bioorg Med Chem, 2013).
# Tests used:
# [1] = target: T1, Receptor-type tyrosine-protein kinase FLT3 (Homo sapiens, UniProt P36888); test: biochemical; type: cell-based, Sf9
# T1 sequence (P36888 whole entry): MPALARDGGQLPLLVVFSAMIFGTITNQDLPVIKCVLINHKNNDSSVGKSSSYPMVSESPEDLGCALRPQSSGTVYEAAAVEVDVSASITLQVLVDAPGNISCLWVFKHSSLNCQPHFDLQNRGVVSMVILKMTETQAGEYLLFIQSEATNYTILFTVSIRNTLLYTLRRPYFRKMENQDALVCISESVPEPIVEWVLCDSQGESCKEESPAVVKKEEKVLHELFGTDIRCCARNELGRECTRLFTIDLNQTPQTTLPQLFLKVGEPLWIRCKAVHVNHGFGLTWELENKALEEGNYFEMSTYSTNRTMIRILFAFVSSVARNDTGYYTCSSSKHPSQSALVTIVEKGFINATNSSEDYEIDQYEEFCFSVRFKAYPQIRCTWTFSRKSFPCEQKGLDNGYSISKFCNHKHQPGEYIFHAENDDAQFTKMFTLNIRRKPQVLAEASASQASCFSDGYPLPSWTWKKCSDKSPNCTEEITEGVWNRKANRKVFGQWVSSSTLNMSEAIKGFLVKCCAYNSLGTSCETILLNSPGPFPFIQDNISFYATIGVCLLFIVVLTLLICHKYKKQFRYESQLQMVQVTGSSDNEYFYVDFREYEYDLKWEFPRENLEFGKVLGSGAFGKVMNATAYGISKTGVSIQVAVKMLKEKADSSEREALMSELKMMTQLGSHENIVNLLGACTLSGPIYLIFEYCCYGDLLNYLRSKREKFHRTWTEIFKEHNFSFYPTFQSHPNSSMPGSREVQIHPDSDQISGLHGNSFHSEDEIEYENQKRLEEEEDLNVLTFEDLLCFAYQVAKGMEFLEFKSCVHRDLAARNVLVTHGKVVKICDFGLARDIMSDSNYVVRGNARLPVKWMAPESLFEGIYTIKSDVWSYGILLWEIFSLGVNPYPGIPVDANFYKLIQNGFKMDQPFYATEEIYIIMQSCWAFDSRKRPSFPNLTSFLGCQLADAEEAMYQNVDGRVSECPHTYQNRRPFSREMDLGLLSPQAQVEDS
# Description: Inhibition of wild type GST tagged FLT3 kinase (567 to 993) (unknown origin) transfected in insect sf9 cells after 4 hrs by wallac counting analysis
# [2] = target: Vascular endothelial growth factor receptor 2 (Homo sapiens, UniProt P35968); test: biochemical; type: cell-based, Sf9
# Description: Inhibition of recombinant GST tagged VEGFR2 (789 to 1356) (unknown origin) transfected in insect sf9 cells after 120 mins by wallac counting analysis
# Aurora kinase A = target: T2, Aurora kinase A (Homo sapiens, UniProt O14965); test: biochemical
# T2 sequence (O14965 whole entry): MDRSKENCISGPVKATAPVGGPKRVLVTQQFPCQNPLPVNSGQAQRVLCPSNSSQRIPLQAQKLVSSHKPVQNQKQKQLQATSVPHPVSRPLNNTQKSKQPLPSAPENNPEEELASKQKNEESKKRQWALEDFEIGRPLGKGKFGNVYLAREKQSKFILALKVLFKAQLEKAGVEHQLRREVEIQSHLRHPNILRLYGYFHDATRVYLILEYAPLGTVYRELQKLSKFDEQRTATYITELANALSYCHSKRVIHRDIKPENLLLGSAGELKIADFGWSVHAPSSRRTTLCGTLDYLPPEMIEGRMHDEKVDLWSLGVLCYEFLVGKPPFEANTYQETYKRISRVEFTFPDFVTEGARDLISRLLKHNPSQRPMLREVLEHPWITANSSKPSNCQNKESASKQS
# Description: Inhibition of recombinant GST tagged Aurora A kinase (123 to 401) (unknown origin) transfected in insect sf9 cells after 90 mins by wallac counting analysis
# MOLM-13 = test: cells; conditions: Homo sapiens, MOLM-13, 72 h
# [3] = Half life in Sprague-Dawley rat at 2 mg/kg, iv; type: ADME, organism-based; set-up: dose 2 mg/kg, route intravenous; conditions: in vivo
# [4] = Volume of distribution at steady state in Sprague-Dawley rat at 2 mg/kg, iv; type: ADME, organism-based; set-up: dose 2 mg/kg, route intravenous; conditions: in vivo, read-out: Vdss
# [5] = AUC (0 to infinity) in Sprague-Dawley rat at 2 mg/kg, iv; type: ADME, organism-based; set-up: time infinity, dose 2 mg/kg, route intravenous; conditions: plasma
# [6] = Plasma clearance in Sprague-Dawley rat at 2 mg/kg, iv; type: ADME, organism-based; set-up: dose 2 mg/kg, route intravenous
# [7] = Oral bioavailability in Sprague-Dawley rat at 10 mg/kg; type: ADME, organism-based; conditions: in vivo
# Sequence of Vascular endothelial growth factor receptor 2 (P35968 whole entry): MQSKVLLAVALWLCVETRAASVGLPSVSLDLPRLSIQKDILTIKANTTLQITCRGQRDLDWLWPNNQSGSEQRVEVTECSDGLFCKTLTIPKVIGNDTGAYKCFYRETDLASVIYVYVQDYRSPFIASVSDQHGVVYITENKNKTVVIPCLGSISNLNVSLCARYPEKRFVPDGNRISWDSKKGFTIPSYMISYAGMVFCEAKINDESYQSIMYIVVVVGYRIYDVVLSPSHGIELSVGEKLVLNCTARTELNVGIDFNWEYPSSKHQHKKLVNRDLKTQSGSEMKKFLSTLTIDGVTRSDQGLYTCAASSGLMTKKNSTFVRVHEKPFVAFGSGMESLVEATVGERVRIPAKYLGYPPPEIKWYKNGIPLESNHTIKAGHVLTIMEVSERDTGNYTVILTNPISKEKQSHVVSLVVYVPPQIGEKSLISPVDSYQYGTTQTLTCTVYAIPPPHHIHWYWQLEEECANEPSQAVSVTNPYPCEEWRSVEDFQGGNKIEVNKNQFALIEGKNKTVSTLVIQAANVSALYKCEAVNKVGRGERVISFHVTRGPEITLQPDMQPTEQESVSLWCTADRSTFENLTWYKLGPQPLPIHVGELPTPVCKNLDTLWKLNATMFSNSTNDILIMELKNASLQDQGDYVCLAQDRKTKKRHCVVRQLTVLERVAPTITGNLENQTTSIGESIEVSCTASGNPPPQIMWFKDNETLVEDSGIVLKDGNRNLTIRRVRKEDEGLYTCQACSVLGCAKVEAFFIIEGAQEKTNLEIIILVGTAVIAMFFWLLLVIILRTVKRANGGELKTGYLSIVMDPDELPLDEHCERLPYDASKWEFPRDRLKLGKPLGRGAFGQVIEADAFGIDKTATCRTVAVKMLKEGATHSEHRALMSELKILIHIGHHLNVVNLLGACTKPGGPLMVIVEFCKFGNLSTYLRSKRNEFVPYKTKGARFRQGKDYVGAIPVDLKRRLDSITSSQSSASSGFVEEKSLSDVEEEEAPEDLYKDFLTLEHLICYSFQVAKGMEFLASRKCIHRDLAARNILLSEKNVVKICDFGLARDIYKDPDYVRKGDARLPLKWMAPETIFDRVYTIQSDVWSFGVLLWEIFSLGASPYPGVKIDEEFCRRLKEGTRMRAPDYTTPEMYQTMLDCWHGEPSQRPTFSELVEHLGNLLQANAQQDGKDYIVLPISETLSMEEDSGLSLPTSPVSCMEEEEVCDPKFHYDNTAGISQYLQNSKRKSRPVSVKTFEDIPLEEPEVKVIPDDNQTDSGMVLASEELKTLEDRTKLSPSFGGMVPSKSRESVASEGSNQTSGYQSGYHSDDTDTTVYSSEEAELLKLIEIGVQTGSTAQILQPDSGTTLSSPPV
Compound,IC50 [1],IC50 [2],IC50 (Aurora kinase A),GI50 (MOLM-13),half-life [3],Vd [4],AUC(0-inf) [5],clearance [6],bioavailability [7]
O=C(NCc1ccc(-c2cc(NC(=O)c3ccc(OCCN4CCOCC4)cc3)[nH]n2)cc1)Nc1ccc(F)cc1,66 nM,130 nM,> 1000 nM,5 nM,–,–,–,–,–
Cc1cc(NC(=O)Nc2ccc(-c3cc(NC(=O)c4ccc(N5CCN(C)CC5)cc4)[nH]n3)cc2Cl)no1,390 nM,> 1000 nM,600 nM,7 nM,–,–,–,–,–
CN1CCN(c2ccc(C(=O)Nc3cc(-c4ccc(NC(=O)Nc5ccccc5)cc4)n[nH]3)cc2)CC1,13 nM,26 nM,330 nM,6 nM,–,–,–,–,–
CCNC(=O)Nc1ccc(-c2cc(NC(=O)c3ccc(N4CCN(C)CC4)cc3)[nH]n2)cc1,94 nM,100 nM,> 1000 nM,33 nM,–,–,–,–,–
CN1CCN(c2ccc(C(=O)Nc3cc(-c4ccc(NC(=O)N5CCCC5)cc4)n[nH]3)cc2)CC1,70 nM,> 1000 nM,> 1000 nM,37 nM,–,–,–,–,–
Cc1nc(Nc2cc(-c3ccc(CNC(=O)Nc4cc(C(C)(C)C)on4)cc3)n[nH]2)cc(N2CCN(CCO)CC2)n1,95 nM,50 nM,490 nM,5 nM,–,–,–,–,–
CN1CCN(c2ccc(C(=O)Nc3cc(-c4ccc(NC(=O)Nc5cccnc5)cc4)n[nH]3)cc2)CC1,74 nM,190 nM,300 nM,22 nM,–,–,–,–,–
Cc1cc(-c2cc(NC(=O)c3ccc(CN4CCN(C)CC4)cc3)[nH]n2)ccc1NC(=O)Nc1cc(C(C)(C)C)on1,–,–,–,–,17 h,10 L/kg,3020 ng·h/mL,11.3 mL/min/kg,–
CN1CCN(c2ccc(C(=O)Nc3cc(-c4cccc(NS(=O)(=O)c5ccccc5)c4)n[nH]3)cc2)CC1,11 nM,–,–,21 nM,–,–,–,–,–
CN1CCN(c2ccc(C(=O)Nc3cc(-c4ccc(NC(=O)NC5CC5)cc4)n[nH]3)cc2)CC1,52 nM,300 nM,> 1000 nM,18 nM,–,–,–,–,–
Cc1nc(Nc2cc(-c3ccc(CNC(=O)Nc4cc(C(C)(C)C)on4)cc3)n[nH]2)cc(N2CCNCC2)n1,26 nM,85 nM,710 nM,8 nM,–,–,–,–,–
Cc1nc(Nc2cc(-c3ccc(NC(=O)Nc4ccccc4)cc3)n[nH]2)cc(N2CCN(C)CC2)n1,280 nM,620 nM,500 nM,160 nM,–,–,–,–,–
Cc1nc(Nc2cc(-c3ccc(CNC(=O)Nc4cc(C)on4)cc3)n[nH]2)cc(N2CCN(C)CC2)n1,21 nM,100 nM,320 nM,9 nM,–,–,–,–,–
Cc1cnc(NC(=O)Nc2ccc(-c3cc(NC(=O)c4ccc(N5CCN(C)CC5)cc4)[nH]n3)cc2)s1,50 nM,35 nM,65 nM,9 nM,–,–,–,–,–
Cc1nc(Nc2cc(-c3ccc(CNC(=O)Nc4cc(C)on4)cc3)n[nH]2)cc(N2CCN(CCO)CC2)n1,17 nM,120 nM,98 nM,16 nM,–,–,–,–,–
Cc1cc(-c2cc(NC(=O)c3ccc(OCCN4CCOCC4)cc3)[nH]n2)ccc1NC(=O)Nc1cc(C(C)(C)C)on1,20 nM,27 nM,69 nM,8 nM,5.3 h,4.7 L/kg,2860 ng·h/mL,13.9 mL/min/kg,4%
CN1CCN(c2ccc(C(=O)Nc3cc(-c4ccc(NC(=O)Nc5cc(C(C)(C)C)on5)cc4)n[nH]3)cc2)CC1,30 nM,12 nM,53 nM,5 nM,–,–,–,–,–
Cc1nc(Nc2cc(-c3ccc(CNC(=O)Nc4cccc(Cl)c4)cc3)n[nH]2)cc(N2CCNCC2)n1,26 nM,38 nM,790 nM,18 nM,–,–,–,–,–
CN1CCN(c2ccc(C(=O)Nc3cc(-c4ccc(NC(=O)Nc5ccccn5)cc4)n[nH]3)cc2)CC1,40 nM,73 nM,610 nM,42 nM,–,–,–,–,–

# The remaining molecules from weak to strong by GI50 (MOLM-13), led by results:
IC50 [1],IC50 [2],IC50 (Aurora kinase A),GI50 (MOLM-13),half-life [3],Vd [4],AUC(0-inf) [5],clearance [6],bioavailability [7],Compound
22 nM,82 nM,> 1000 nM,4 nM,–,–,–,–,–,CN1CCN(Cc2ccc(C(=O)Nc3cc(-c4ccc(CNC(=O)Nc5ccccc5)cc4)n[nH]3)cc2)CC1
16 nM,71 nM,> 1000 nM,3 nM,–,–,–,–,–,O=C(NCc1ccc(-c2cc(NC(=O)c3ccc(OCCN4CCOCC4)cc3)[nH]n2)cc1)Nc1ccc(Cl)cc1
6 nM,31 nM,120 nM,3 nM,–,–,–,–,–,Cc1cc(NC(=O)Nc2ccc(-c3cc(NC(=O)c4ccc(N5CCN(C)CC5)cc4)[nH]n3)cc2)no1
9 nM,54 nM,760 nM,3 nM,–,–,–,–,–,O=C(NCc1ccc(-c2cc(NC(=O)c3ccc(OCCN4CCOCC4)cc3)[nH]n2)cc1)Nc1ccccc1
35 nM,12 nM,120 nM,3 nM,–,–,–,–,–,Cc1nc(Nc2cc(-c3ccc(CNC(=O)Nc4cc(C(C)(C)C)on4)cc3)n[nH]2)cc(N2CCN(C)CC2)n1
4 nM,18 nM,> 1000 nM,3 nM,11 h,8 L/kg,2120 ng·h/mL,17.2 mL/min/kg,–,CN1CCN(Cc2ccc(C(=O)Nc3cc(-c4ccc(CNC(=O)Nc5cc(C(C)(C)C)on5)cc4)n[nH]3)cc2)CC1
15 nM,12 nM,47 nM,2 nM,–,–,–,–,–,CC(C)(C)c1cc(NC(=O)Nc2ccc(-c3cc(NC(=O)c4ccc(OCCN5CCCC5)cc4)[nH]n3)cc2)no1
19 nM,22 nM,160 nM,2 nM,–,–,–,–,–,CC(C)(C)c1cc(NC(=O)Nc2ccc(-c3cc(NC(=O)c4ccc(OCCN5CCOCC5)cc4)[nH]n3)cc2)no1
13 nM,50 nM,940 nM,2 nM,–,–,–,–,–,Cc1cc(NC(=O)NCc2ccc(-c3cc(NC(=O)c4ccc(N5CCN(C)CC5)cc4)[nH]n3)cc2)no1
–,–,–,2 nM,–,–,–,–,–,O=C(NCc1ccc(-c2cc(NC(=O)c3ccc(OCCN4CCCC4)cc3)[nH]n2)cc1)OCc1ccccc1
9 nM,38 nM,250 nM,1 nM,–,–,–,–,–,Cc1cc(NC(=O)Nc2ccc(-c3cc(NC(=O)c4ccc(N5CCN(C)CC5)cc4)[nH]n3)cc2C)no1
8 nM,12 nM,160 nM,1 nM,–,–,–,–,–,CN1CCN(Cc2ccc(C(=O)Nc3cc(-c4ccc(NC(=O)Nc5cc(C(C)(C)C)on5)cc4)n[nH]3)cc2)CC1
